# Reference: PubChem BioAssay AID602236 (The Scripps Research Institute Molecular Screening Center, 2012)
# Calls of active or inactive are those of the source.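 Rule for the calls: active = IC50 of 10 µM or lower; inactive = IC50 above 10 µM.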
# Tested on: HEK-293 Gal4-VP16 UAS luciferase reporter, luminescence
# Test: VP16 transactivation inhibitor potency, dose response, counter-screen for SRC1 inhibitor project, cell-based, luminescence, high throughput, SRC1 series (AID 602236);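 note: inhibitor potency where hits lower luciferase light from Gal4-VP16 transactivation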
row,SMILES,IC50
1,CC(C)n1c(SCC(=O)Nc2nc3c(s2)CCCC3)nc2c1c(=O)n(C)c(=O)n2C,13.9 µM (inactive)
2,COC(CN(C(=O)CCl)C(C(=O)NC1CCCCC1)c1ccccc1C)OC (stereo not given),8.47 µM
3,Cc1cccc(C)c1-c1ccc(CN2C(CC(C)C)C(=O)N(Cc3cn(CC4CCCCC4)nn3)CCS2(=O)=O)cc1 (stereo not given),16.6 µM (inactive)
4,CN1CCN(c2cccc3c2C(=O)c2ccccc2C3=O)CC1,23.8 µM (inactive)
5,COc1ccc(-n2cnc3c(sc4nccc(N(C)C)c43)c2=O)cc1,14.2 µM (inactive)
6,CCOc1cccc(/C=N/NC(=O)c2cc(C3CC3)[nH]n2)c1O,11.2 µM (inactive)
7,O=C(Nc1nc(-c2ccccn2)cs1)c1cccc(S(=O)(=O)N2CCOCC2)c1,8.59 µM
8,CN(Cc1cnc2nc(N)nc(N)c2n1)c1ccc(C(=O)N[C@@H](CCC(=O)O)C(=O)O)cc1,> 35.9 µM (inactive)
9,Oc1ccc(C=NNc2ccccn2)c(O)c1,> 35.9 µM (inactive)
10,O=C(Nc1ccncc1)c1ccccc1[N+](=O)[O-],14.2 µM (inactive)
11,COc1cc(C(=O)NC(=S)NNC(=O)c2cnccn2)cc(OC)c1OC,11.9 µM (inactive)
12,COc1cc(C(=O)N/N=C(\c2ccccc2)c2ccccn2)cc(OC)c1OC,8.61 µM
13,CCN(c1ccccc1)S(=O)(=O)c1cc(C(=O)Nc2ccc(Br)cc2)ccc1F,8.24 µM
14,Cc1ccc(S(=O)(=O)NC(CC(C)C)C(=O)NCC(c2ccco2)N2CCCCC2)cc1 (stereo not given),> 35.9 µM (inactive)
15,O=C(N/N=C/c1coc2ccc(Cl)cc2c1=O)c1ccc(O)cc1,> 35.9 µM (inactive)
16,O=c1ccc2c(ccc3ncccc32)o1,18.1 µM (inactive)
17,CCc1nc(N)nc(N)c1-c1ccc(Cl)c([N+](=O)[O-])c1,> 35.8 µM (inactive)
18,COc1cc(C2c3cc4c(cc3C(OC3OC5COC(c6cccs6)OC5C(O)C3O)C3COC(=O)C23)OCO4)cc(OC)c1O (stereo not given),> 35.9 µM (inactive)
19,O=C(O)c1ccccc1C(=O)Nc1ccc(Oc2cccc3ccccc23)cc1,> 35.9 µM (inactive)
20,Cn1nc(C(F)(F)F)c(C#N)c1N1CCN(c2ccc(F)cc2)CC1,7.86 µM
21,COc1ccccc1NS(=O)(=O)c1cccc(NC(=O)c2cncc(Br)c2)c1,12 µM (inactive)
22,O=C(Nc1cccc2c1CCCC2)c1cc([N+](=O)[O-])ccc1Cl,9.3 µM
23,COc1ccc(Nc2ncnc3ccc(Br)cc23)c(OC)c1,15.9 µM (inactive)
24,CC1(C)Cc2c(ccc3ccccc23)C(=O)N1,8.4 µM
25,COc1ccccc1/C=C\C(=O)NCC(=O)N/N=C/c1cccc(OC)c1O,15.5 µM (inactive)

row,SMILES,IC50
1,COc1ccc(OC)c(/C=C2\NC(=O)NC2=O)c1,10.8 µM (inactive)
2,O=C(CCCOc1ccc(Cl)cc1Cl)N/N=C/c1ccccc1O,4.77 µM
3,CCn1c2ccccc2c2cnc(N=CN(C)C)c(C#N)c21,28.9 µM (inactive)
4,CC1CCN(C(=O)c2scc3c2OCCO3)CC1,16.4 µM (inactive)
5,CCn1c(Oc2cccc(Br)c2)nc2c1c(=O)n(C)c(=O)n2C,25.8 µM (inactive)
6,O=C(O)c1ccccc1-c1c2cc(I)c(=O)c(I)c-2oc2c(I)c(O)c(I)cc12,> 35.9 µM (inactive)
7,CNc1ncnc(Sc2nc(N)nc3nc[nH]c23)c1[N+](=O)[O-],5.79 µM
8,Cc1c(/C(O)=C2/C(=O)C(=O)N(Cc3cccnc3)C2c2ccccn2)cnn1-c1ccccc1 (stereo not given),> 35.9 µM (inactive)
9,O=[N+]([O-])c1ccc2c(c1)-c1ccccc1C2=NO,> 35.9 µM (inactive)
10,C=CCn1c(Oc2ccccc2F)nc2c1c(=O)n(C)c(=O)n2C,8.46 µM
11,COc1cccc(CNc2ncnc3ccc(-c4c(C)noc4C)cc23)c1,> 35.9 µM (inactive)
12,CC1CC(C)C(=NNC(N)=O)C(C(O)CC2CCC(=O)NC2=O)C1 (stereo not given),12.2 µM (inactive)
13,CCOc1ccccc1-n1c(SCC(=O)Nc2ccccc2C(=O)O)nc2ccccc2c1=O,> 35.9 µM (inactive)
14,O=C(Nc1cccnc1)c1ccc(C(=O)Nc2cccnc2)cc1,> 35.9 µM (inactive)
15,OCCN1CCN(C(=S)c2ccc(-c3ccccc3)cc2)CC1,30.7 µM (inactive)
16,CN(c1ccc(C(=O)N2CCN(Cc3ccc4c(c3)OCO4)CC2)cc1)S(=O)(=O)c1ccccc1,13.5 µM (inactive)
17,CCc1ccc(-c2nc(CSCC(=O)NCc3ccco3)c(C)o2)cc1,21.8 µM (inactive)
18,Cc1ccc(NC(=O)C2CCN(c3ncnc4sc(C)c(C)c34)CC2)cc1S(=O)(=O)N(C)C,13.4 µM (inactive)
19,Nc1ncccc1C(=O)OCC(=O)N1CCN(S(=O)(=O)c2ccc(Cl)cc2)CC1,12.8 µM (inactive)
20,Cc1c(CC(=O)NCCCC(=O)O)c(=O)oc2cc3c(cc12)CCC(C)(C)O3,18.4 µM (inactive)
21,O=C(N/N=C/c1cc([N+](=O)[O-])ccc1O)c1cccc(N2CCCC2=O)c1,18.3 µM (inactive)
22,COc1ccc(Oc2nc3c(c(=O)n(C)c(=O)n3C)n2C)cc1,16.6 µM (inactive)
23,CCCCC(CC)COCCCN=Cc1c(O)[nH]c(=S)[nH]c1=O (stereo not given),10.5 µM (inactive)
24,Cc1nc(N2CCC(C(N)=O)CC2)c2c(-c3cccs3)csc2n1,11.6 µM (inactive)
25,CC(=O)NC(c1cc(Cl)c2cccnc2c1O)C(C)C (stereo not given),8.06 µM

row,SMILES,IC50
1,Cc1c2ccncc2cc2c1[nH]c1ccccc12,6.48 µM
2,Cc1nn(C(C)(C)C)c(C)c1/C=N/OC(=O)Nc1ccc(Cl)c(Cl)c1,13.9 µM (inactive)
3,CC(C)Cn1c(N)c(C(=O)COC(=O)c2cc3ccccc3cc2O)c(=O)n(C)c1=O,29.3 µM (inactive)
4,Cc1ccc2nc(C(F)(F)F)c(C#N)c(N)c2c1,10.4 µM (inactive)
5,COc1ccc(-c2ncncc2-c2ccccc2)c(O)c1,19.4 µM (inactive)
6,Cc1ccc(NC(=O)NC2CC(=O)N(c3ccc4c(c3)OCCO4)C2)cc1C (stereo not given),20.6 µM (inactive)
7,CCCS(=O)(=O)Nc1ccc(Nc2c3ccccc3nc3ccccc23)c(OC)c1,> 35.9 µM (inactive)
8,Cc1nn(CC(=O)N2CCN(c3cccc(C(F)(F)F)c3)CC2)c(=O)c2cccn12,17.6 µM (inactive)
9,O=C(c1ccncc1)N(Cc1cc2ccccc2[nH]c1=O)C1CCCCC1,7.87 µM
10,CCc1ccc(/C=C2\SC(=S)N(CCCC(=O)NCCCN3CCOCC3)C2=O)cc1,12.7 µM (inactive)
11,O=[N+]([O-])c1cccc2c1ccc1ncccc12,12.8 µM (inactive)
12,Cc1ccc(O)c(Nc2ncnc3ccc([N+](=O)[O-])cc23)c1,10.8 µM (inactive)
13,O=C(CCl)N1N=C(c2ccco2)CC1c1cccs1 (stereo not given),16 µM (inactive)
14,CCn1c(Oc2ccc(F)cc2)nc2c1c(=O)n(C)c(=O)n2C,12.4 µM (inactive)
15,NNC(=O)c1cc2ccccc2cc1O,18.4 µM (inactive)
16,Cc1cc(/C=C2\Cc3ccccc3C2=O)c(C)n1-c1ccccc1,> 35.9 µM (inactive)
17,O=C(CCC(=O)Nc1ccc(Br)cc1)N/N=C/c1ccccc1O,4.9 µM
18,N#Cc1c2ccc(O)cc2n2ccccc12,> 35.9 µM (inactive)
19,NC(=S)NN=Cc1ccc(OC(=O)COc2cc(Cl)c(Cl)cc2Cl)cn1,> 35.9 µM (inactive)
20,Cc1ccc(C)c(NC(=O)c2ccccc2NS(=O)(=O)c2cc([N+](=O)[O-])ccc2C)c1,3.98 µM
21,Cc1cc(=O)[nH]c(Nc2cccc(Br)c2)n1,9.71 µM
22,CN(CC(=O)Nc1ccc(Cl)c(C(F)(F)F)c1)C(=O)C1CC(=O)N(c2ccc3c(c2)OCCO3)C1 (stereo not given),25.1 µM (inactive)
23,CC(=O)c1cccc(NC(=O)COc2cc3oc(=O)c(CC(C)O)c(C)c3cc2Cl)c1 (stereo not given),> 35.9 µM (inactive)
24,Cc1ccc(O)c(C(=O)c2cnn(C(=O)COc3ccc(Cl)cc3)c2)c1,27.6 µM (inactive)
25,CCN1CCN(C(=S)c2ccc(-c3ccccc3)cc2)CC1,29.5 µM (inactive)

row,SMILES,IC50
1,O=C(OC(c1ccccc1)c1nccc2ccccc12)c1ccccc1 (stereo not given),23.9 µM (inactive)
2,COc1ccc(/C=C2/SC(=S)N(CCC(=O)O)C2=O)cc1,> 35.9 µM (inactive)
3,COc1ccccc1N(C(=O)CCl)c1cn(C(C)=O)c2ccccc12,9.22 µM
4,CN(Cc1cnc2nc(N)nc(N)c2n1)c1ccc(C(=O)NC(CCC(=O)O)C(=O)O)cc1 (stereo not given),> 35.9 µM (inactive)
5,Cc1ccc(N(Cc2cc(=O)[nH]c3ccccc23)C(=O)CCl)c(C)c1,6.66 µM
6,CCN(Cc1ccncc1)C(=O)CC1C(=O)NCCN1Cc1ccc(F)c(F)c1 (stereo not given),15.8 µM (inactive)
7,c1ccc(-c2nnc(-c3ccccn3)nc2NC2CCCCC2)cc1,> 35.9 µM (inactive)
8,S=C(Nc1ccccc1)Nc1ccc(OCc2ccc(Cl)cc2Cl)cc1,6.69 µM
9,Cc1ccc(S(=O)(=O)Nc2c(NC3CCCCC3)c3ccccc3oc2=O)c(C)c1,12.8 µM (inactive)
10,CN(C)C(=O)c1cccc(COc2ccc(N3C(N)=NC(N)=NC3(C)C)cc2Cl)c1,> 35.8 µM (inactive)
11,COc1ccc2c(c1)-c1c(ssc1=S)C(C)(C)N2C(=O)CSC1=NCCS1,20.6 µM (inactive)
12,CN(C)c1ccc(Nc2ncnc3ccc(Br)cc23)cc1,3.2 µM
13,COc1cc2c(cc1OC)C(NC(=O)C(F)(F)F)CNC2=O (stereo not given),10.8 µM (inactive)
14,CN(Cc1cnc2nc(N)nc(N)c2n1)c1ccc(C(=O)NC(CCC(=O)O)C(=O)O)c2ccccc12 (stereo not given),> 35.9 µM (inactive)
15,CCOC(=O)CC(=O)CSc1nccc(-c2cccnc2)n1,> 35.9 µM (inactive)
16,CCCCCCCC[n+]1c(C)n(-c2ccccc2)c2ccc(NC(C)=O)cc21,10.5 µM (inactive)
17,Cc1nc2c(-c3ccc(F)cc3)cnn2c(N)c1-c1ccccc1,14.5 µM (inactive)
18,COc1ccc(Cc2nnc(SCc3ccc([N+](=O)[O-])cc3)o2)cc1,15.3 µM (inactive)
19,Cn1c(=O)c2[nH]c(COc3ccc(C(C)(C)C)cc3)nc2n(C)c1=O,8.31 µM
20,O=C(COC(=O)c1ccc[nH]c1=O)Nc1ccc(N2CCCCC2)cc1,> 35.9 µM (inactive)
21,COc1cc(/C=C2\CC(C(C)(C)C)C/C(=C\c3cc(OC)c(OC)c(OC)c3)C2=O)cc(OC)c1OC (stereo not given),5.96 µM
22,O=C(CCl)NC(Cc1ccccc1)c1ccccc1 (stereo not given),20.8 µM (inactive)
23,CCOc1cccc(/C=N/NC(=O)c2cccnc2)c1O,8.44 µM
24,O=C1CCC2S/C(=C/Nc3ccc(C(F)(F)F)cc3)C(=O)N12 (stereo not given),> 35.9 µM (inactive)
25,O=C(CCl)N(c1ccccc1)C1CCS(=O)(=O)C1 (stereo not given),16.2 µM (inactive)
